Source: PubChem BioAssay AID1259411 (Chemical Carcinogenesis Research Information System (CCRIS), 2018)
Active and inactive are the calls of the source. No rule for the calls is given here.

Test system: rodent carcinogenicity bioassays, tumor incidence
Assay: CCRIS carcinogenicity studies
In short: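 Archive of carcinogenicity, mutagenicity, tumor promotion and tumor inhibition results drawn from journals, NCI reports and other sources, expert-reviewed; covers 1985-2011 and is no longer updated.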

## Cc1c(N)nc(C)c2c1[nH]c1ccccc12
Species: MOUSE, Strain/Sex: CDF1/FEMALE, Route: ORAL, Dose: 0, 200 PPM IN DIET FOR 621 D, Tumor Site: Type of Lesion: LIVER: HEPATOCELLULAR CARCINOMA
  carcinogen call: active; positive
Species: MOUSE, Strain/Sex: DDY/FEMALE, Route: BLADDER IMPLANT, Dose: 0, 5% IN PARAFFIN PELLET (STUDY DURATION: 40 WK), Tumor Site: Type of Lesion: URINARY BLADDER: TRANSITIONAL CELL CARCINOMA
  carcinogen call: active; positive
Species: RAT, Strain/Sex: F344/FEMALE, Route: ORAL, Dose: 0, 0.02% IN PELLET DIET FOR DURATION OF STUDY (STUDY DURATION: 365 D), Tumor Site: Type of Lesion: LIVER: TRABECULAR CARCINOMA, ADENOCARCINOMA
  carcinogen call: active; positive
Species: RAT, Strain/Sex: F344/MALE, Route: ORAL, Dose: 0, 0.015% IN PELLET DIET FOR DURATION OF STUDY (STUDY DURATION: 365 D), Tumor Site: Type of Lesion: LIVER: TRABECULAR CARCINOMA, ADENOCARCINOMA
  carcinogen call: active; positive

## OC(c1ccc(Cl)cc1)(c1ccc(Cl)cc1)C(Cl)(Cl)Cl
Species: MOUSE, Strain/Sex: B6C3F1/FEMALE, Route: ORAL, Dose: 0, 122, 243 PPM IN DIET, Dose: 0, 122, 243 PPM IN DIET
  carcinogen call: inactive; negative
Species: MOUSE, Strain/Sex: B6C3F1/MALE, Route: ORAL, Dose: 0, 264, 528 PPM IN DIET, Dose: 0, 264, 528 PPM IN DIET, Tumor Site: Type of Lesion: LIVER: HEPATOCELLULAR CARCINOMA OR HEPATOCELLULAR ADENOMA
  carcinogen call: active; positive
Species: RAT, Strain/Sex: OSBORNE-MENDEL/FEMALE, Route: ORAL, Dose: 0, 380, 760 PPM IN DIET, Dose: 0, 380, 760 PPM IN DIET
  carcinogen call: inactive; negative
Species: RAT, Strain/Sex: OSBORNE-MENDEL/MALE, Route: ORAL, Dose: 0, 471, 942 PPM IN DIET, Dose: 0, 471, 942 PPM IN DIET
  carcinogen call: inactive; negative

## C[C@H]([C@H](O)CCC(C)(C)O)[C@H]1CC[C@@]2(O)C3=CC(=O)[C@@H]4C[C@@H](O)[C@@H](O)C[C@]4(C)[C@H]3CC[C@]12C
Species: MOUSE, Strain/Sex: SWISS/FEMALE, Route: ORAL, Dose: 0, 3 PPM/25 G BW IN DIET FOR 22 MO (STUDY DURATION: 22 MO), Tumor Site: Type of Lesion: MAMMARY GLAND: TUMOR, LUNG: TUMOR
  carcinogen call: active; positive
Species: MOUSE, Strain/Sex: SWISS/MALE, Route: ORAL, Dose: 0, 3 PPM/25 G BW IN DIET FOR 22 MO (STUDY DURATION: 22 MO), Tumor Site: Type of Lesion: LUNG: TUMOR
  carcinogen call: active; positive

## C1CCC2CCCCC2C1 (stereo not drawn)
Species: MOUSE, Strain/Sex: B6C3F1/FEMALE (50/GROUP), Route: INHALATION, Dose: 0, 25, 100, 400 PPM 6 HR/D, 5 D/WK FOR 105 WKS (STUDY DURATION: 105 WKS), Dose: 0, 25, 100, 400 PPM 6 HR/D, 5 D/WK FOR 105 WKS (STUDY DURATION: 105 WKS), Tumor Site: Type of Lesion: LIVER: HEPATOCELLULAR ADENOMA OR CARCINOMA (22%; 54%; 28%; 42%)
  carcinogen call: equivocal; ntp says marginal increase in uterine tumors but p values did not rea
Species: MOUSE, Strain/Sex: B6C3F1/MALE (50/GROUP), Route: INHALATION, Dose: 0, 25, 100, 400 PPM 6 HR/D, 5 D/WK FOR 105 WKS (STUDY DURATION: 105 WKS), Dose: 0, 25, 100, 400 PPM 6 HR/D, 5 D/WK FOR 105 WKS (STUDY DURATION: 105 WKS)
  carcinogen call: inactive; negative
Species: RAT, Strain/Sex: F344/FEMALE, Route: INHALATION, Dose: 0, 25, 100, 400 PPM IN AIR, 6 H PLUS 12 MIN/D, 5 D/WK FOR 2 YR (STUDY DURATION: 2 YR), Dose: 0, 25, 100, 400 PPM IN AIR, 6 H PLUS 12 MIN/D, 5 D/WK FOR 2 YR (STUDY DURATION: 2 YR)
  carcinogen call: inactive; negative
Species: RAT, Strain/Sex: F344/MALE, Route: INHALATION, Dose: 0, 25, 50, 100, 400 PPM IN AIR , 6 H PLUS 12 MIN/D, 5 D/WK FOR 2 YR (STUDY DURATION: 2 YR), Dose: 0, 25, 50, 100, 400 PPM IN AIR , 6 H PLUS 12 MIN/D, 5 D/WK FOR 2 YR (STUDY DURATION: 2 YR), Tumor Site: Type of Lesion: KIDNEY: RENAL TUBULE ADENOMA, RENAL TUBULE ADENOMA OR CARCINOMA
  carcinogen call: active; positive
Species: RAT, Strain/Sex: F344/N/FEMALE (50/GROUP), Route: INHALATION, Dose: 0, 25, 100, 400 PPM 6 HR/D, 5 D/WK FOR 105 WKS (STUDY DURATION: 105 WKS), Dose: 0, 25, 100, 400 PPM 6 HR/D, 5 D/WK FOR 105 WKS (STUDY DURATION: 105 WKS)
  carcinogen call: inactive; negative
Species: RAT, Strain/Sex: F344/N/MALE (20/GROUP), Route: INHALATION, Dose: 400 PPM 6 HR/D, 5 D/WK FOR 105 WKS (STUDY DURATION: 105 WKS), Tumor Site: Type of Lesion: KIDNEY: RENAL TUBULE ADENOMA OR CARCINOMA (30%), ADRENAL: PHEOCHROMOCYTOMA (40%)
  carcinogen call: active; positive
Species: RAT, Strain/Sex: F344/N/MALE (50/GROUP), Route: INHALATION, Dose: 0, 25, 50, 100 PPM 6 HR/D, 5 D/WK FOR 105 WKS (STUDY DURATION: 105 WKS), Dose: 0, 25, 50, 100 PPM 6 HR/D, 5 D/WK FOR 105 WKS (STUDY DURATION: 105 WKS), Tumor Site: Type of Lesion: KIDNEY: RENAL TUBULE ADENOMA OR CARCINOMA (2%; 6%; 14%; 24%), ADRENAL: BENIGN OR MALIGNANT PHEOCHROMOCYTOMA (16%, 18%, 2, Tumor Site: Type of Lesion: KIDNEY: RENAL TUBULE ADENOMA OR CARCINOMA (2%; 6%; 14%; 24%), ADRENAL: BENIGN OR MALIGNANT PHEOCHROMOCYTOMA (16%, 18%, 2
  carcinogen call: active; positive; alpha-2u-globulin, incidences of renal tubule regeneration and granula

## CCSC(=O)N(CC(C)C)CC(C)C
Species: Mouse, Strain/Sex: CD-1/Female (50/sex/group), Route: Oral, Dose: 0, 20, 80, 320 mg/kg/d in diet for 2 yrs, Dose: 0, 20, 80, 320 mg/kg/d in diet for 2 yrs
  carcinogen call: inactive; negative; probable purity of 97-98%
Species: Mouse, Strain/Sex: CD-1/Male (50/sex/group), Route: Oral, Dose: 0, 20, 80, 320 mg/kg/d in diet for 2 yrs, Dose: 0, 20, 80, 320 mg/kg/d in diet for 2 yrs
  carcinogen call: inactive; negative; probable purity of 97-98%
Species: Rat, Strain/Sex: Sprague-Dawley/Female (70/sex/group), Route: Oral, Dose: 0, 50, 100, 200, 400 mg/kg/d in diet for 12, 18, or 24 mo, Dose: 0, 50, 100, 200, 400 mg/kg/d in diet for 12, 18, or 24 mo
  carcinogen call: inactive; negative; probable purity of 97-98% (there were probably 10 animals in each inte
Species: Rat, Strain/Sex: Sprague-Dawley/Male (70/sex/group), Route: Oral, Dose: 0, 50, 100, 200, 400 mg/kg/d in diet for 12, 18, or 24 mo, Dose: 0, 50, 100, 200, 400 mg/kg/d in diet for 12, 18, or 24 mo
  carcinogen call: inactive; negative; probable purity of 97-98% (there were probably 10 animals in each inte

## O=S(=O)(O)OCc1ccc2ccc3cccc4ccc1c2c34
Species: RAT, Strain/Sex: SPRAGUE-DAWLEY/FEMALE, Route: SUBCUTANEOUS, Dose: 0, 0.2 UMOL IN 0.1 ML SESAME OIL:DMSO (9:1) 1/2 D FOR 20 DOSES (STUDY DURATION: 52 WK), Tumor Site: Type of Lesion: INJECTION SITE: SARCOMA
  carcinogen call: active; positive

## Cc1cccc(Nc2cc(Cl)nc(SCC(=O)NCCO)n2)c1C
Species: MOUSE, Strain/Sex: STRAIN-CS/FEMALE, Route: ORAL, Dose: 0.2% IN DIET FOR 19 MO, Tumor Site: Type of Lesion: LIVER: HEPATOCELLULAR CARCINOMA
  carcinogen call: active; positive
Species: RAT, Strain/Sex: F344/MALE, Route: ORAL, Dose: 0.05, 0.2% IN DIET FOR 19 MO (LOW DOSE) OR 16 MO (HIGH DOSE), Tumor Site: Type of Lesion: LIVER: HEPATOCELLULAR CARCINOMA
  carcinogen call: active; positive

## CN[C@@H](C)[C@H](O)c1ccccc1
Species: MOUSE, Strain/Sex: B6C3F1/FEMALE, Route: ORAL, Dose: 0, 125, 250 PPM IN DIET FOR 103 WK, Dose: 0, 125, 250 PPM IN DIET FOR 103 WK
  carcinogen call: inactive; negative
Species: MOUSE, Strain/Sex: B6C3F1/MALE, Route: ORAL, Dose: 0, 125, 250 PPM IN DIET FOR 103 WK, Dose: 0, 125, 250 PPM IN DIET FOR 103 WK
  carcinogen call: inactive; negative
Species: RAT, Strain/Sex: F344/FEMALE, Route: ORAL, Dose: 0, 125, 250 PPM IN DIET FOR 103 WK, Dose: 0, 125, 250 PPM IN DIET FOR 103 WK
  carcinogen call: inactive; negative
Species: RAT, Strain/Sex: F344/MALE, Route: ORAL, Dose: 0, 125, 250 PPM IN DIET FOR 103 WK, Dose: 0, 125, 250 PPM IN DIET FOR 103 WK
  carcinogen call: inactive; negative
